Reference: the NIST ThermoML archive (doi:10.1021/je1011136)
Numbers after ± are expanded uncertainties.

Legend:
[1] = Molar enthalpy of transition or fusion; conditions: Crystal; DSC
[2] = Crystal; DTA

Molar enthalpy of transition or fusion [1]: 4.54 ± 0.136 kcal/mol | Normal melting temperature [2]: 59.4 ± 1.1 °C
Structure (SMILES): COc1cc(CNC(=O)CCCCCCC(C)C)ccc1O [N-(4-hydroxy-3-methoxybenzyl)-8-methylnonanamide]
